Experimental data from US6406709B1, “Method for inhibiting nematocyst discharge” (Nidaria Technology Ltd., priority 1997, dated 2002).

Assays:
[1] = test system: isolated nematocyst capsules; settings: 50 mM CaCl2; cited from earlier work
[2] = test system: nematocysts of jellyfish or sea anemone tentacles; experiment: Artemia adhesion/paralysis test of nematocyst discharge by tentacle fragments in sea water; type: cell-based
Description: To initially test inhibition of nematocyst discharge, the following test was performed. It is typical behavior for jellyfish or sea anemone tentacles to adhere to and paralyze newly hatched nauplii of Artemia sp. The adhesion and subsequent paralysis is characteristic of nematocyst discharge by the tentacles. Small 2 to 3 mm fragments of jellyfish or sea anemone tentacles were prepared and placed in a 12-well plate containing filtered sea water. The tentacle fragments were washed by changing the filtered sea water three times. One mL of filtered sea water was left in each well after the final wash. […] The 6 wells without the antihistamine served as controls. Ten Artemia sp. were added to each well in a total volume of between 50 and 100 uL of filtered sea water. After 2 minutes, the number of attached or paralyzed Artemia in each well was measured.

Auzelia nematocysts = experiment: Nematocyst discharge into human skin slides; settings: N=3 test, 3 each control; control discharged less than 100
Description: (§1) Normal human skin (HS) was obtained from neonatal elective circumcision. The skin was immediately placed into sterile phosphate buffered saline (PBS) containing antibiotic/antimycotic. The tissue was frozen embedded in Tissue-Tek™. The tissue was then sectioned into 50 μm sections using a cryostat. The sections were attached to glass slides coated with polylysine and maintained at −70° C. until time of use. All sections were examined to ensure that they were perpendicular to the plane of the epidermis, exposing cross-sections of epidermis, dermis and sub-cutaneous tissue.
(§2) The slides prepared and frozen as described above were thawed at room temperature. The slides were submersed in sea water for approximately 10 seconds and then attached to jellyfish or sea anemones tentacles for approximately 10 seconds. The tentacles were detached, the slides washed two times with PBS, and blocked using 5% Fetal Bovine serum (FBS), and 0.1% Triton X100 in PBS (blocking solution). All washing and incubation steps were conducted on a tilting shaker at room temperature. The slides were incubated in 10 mL of blocking solution containing a 1:2,500 dilution of the anti-toxin antibody for one hour. After incubation, the slides were washed five times for five minutes each wash with 100 mL of 0.1% TritonX100 in PBS (Wash solution). […]

[3] = test system: Chrysaora quinquecirrha nematocysts; experiment: Nematocyst discharge into human skin slides, Monterey Bay Aquarium; settings: glycerol plus 0.2% diphenhydramine, exposure 10 to 15 seconds
Description: as §1, §2

[4] = test system: Pelagia noctiluca nematocysts; experiment: as above; settings: glycerol plus 0.2% diphenhydramine, exposure 10 to 15 seconds
Description: as §1, §2

[Ca+2].[Cl-].[Cl-] [CaCl2]
discharge of isolated nematocyst capsules [1]: do not discharge

CN(C)CCOC(c1ccccc1)c1ccccc1.Cl [diphenhydramine, diphenhydramine hydrochloride]
effect on the number of Artemia paralyzed by nematocysts ([2]; 0.02% in sea water, versus sea water alone): significantly decreased | Artemia paralyzed by nematocysts, all wells together ([2]; out of 64 Artemia, 50 of 64 without antihistamine): 11 | decrease in nematocyst discharge (Auzelia nematocysts): ten-fold decrease | decrease of nematocyst discharge [3]: 2.5-5 fold | reduction in nematocyst discharged [4]: significant reduction
